Reference: patent US5516647A, “Compounds useful as alkaline phosphatase inhibitors and therapeutic agents” (Abbott Laboratories, priority 1993, dated 1996)
“Also recorded” adds a separate entry of the source. Where two headings read alike, the source gives them in different places.

Assays:
human bone AP = target: T1, human bone AP (Homo sapiens, UniProt P05186); assay: Inhibition of human bone AP isoenzyme (p-nitrophenylphosphate hydrolysis); assay type: biochemical; conditions: for order of potency as inhibitors of bone AP: FIG. 4; for IC50: read-out: [I]50 Bone AP: concentration of inhibitor that gives 50% inhibition of enzyme activity; for times more active than levamisole, bone isoenzymes: ratio to levamisole
T1 construct: Human bone AP was isolated from human osteosarcoma-derived cell line, Saos-2; host or cells: Saos-2 (human osteosarcoma-derived cell line, ATCC), butanol extraction
T1 sequence (P05186 18-502 limits assumed): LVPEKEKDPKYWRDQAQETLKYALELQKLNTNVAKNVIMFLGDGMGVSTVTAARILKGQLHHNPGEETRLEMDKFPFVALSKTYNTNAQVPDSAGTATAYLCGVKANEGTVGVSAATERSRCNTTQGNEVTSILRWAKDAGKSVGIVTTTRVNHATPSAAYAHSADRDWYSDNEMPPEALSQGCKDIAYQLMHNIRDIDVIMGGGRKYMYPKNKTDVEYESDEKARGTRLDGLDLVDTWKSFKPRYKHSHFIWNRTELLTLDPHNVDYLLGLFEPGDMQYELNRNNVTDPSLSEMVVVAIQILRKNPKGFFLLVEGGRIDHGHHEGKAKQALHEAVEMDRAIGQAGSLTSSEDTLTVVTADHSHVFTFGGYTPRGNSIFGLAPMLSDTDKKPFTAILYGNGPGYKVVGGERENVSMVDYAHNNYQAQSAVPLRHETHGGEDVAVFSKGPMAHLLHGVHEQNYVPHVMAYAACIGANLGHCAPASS
Protocol: (§1) Human intestinal AP was obtained from Aalto Scientific, Ltd. Vista, Calif. […] L-Phenylalanine was obtained from Aldrich Chemical Company, Milwaukee, Wis. Human bone AP was isolated from human osteosarcoma-derived cell line, Saos-2 (Catalog No. HTB 85, The American Type Culture Collection, 12301 Parklawn Drive, Rockville, Md.) by butanol extraction as described by J. R. Farley et al., (1989) Clin Chem. 35, 223-229.
(§2) AP activity was determined with VP Bichromatic Analyzer (Abbott Laboratories) by monitoring the appearance of the yellow product, p-nitrophenol, produced as a result of the enzyme catalyzed hydrolysis of the colorless substrate, p-nitrophenylphosphate. The stock preparations of E. coli and human AP were diluted to 0.3-1.0 U/ml with 0.1M Tris buffer, pH 8.0, containing 1 mM magnesium chloride, 0.1 mM zinc chloride and 5 mg/ml bovine serum albumin. […] The diluted enzyme solutions were prepared fresh just before the start of the experiments. The final assay conditions for the human and E. coli AP were as follows:
(§3) Human AP Isoenzymes: p-Nitrophenylphosphate (2.2 mmol/liter); Diethanolamine (500 mmol/liter); Magnesium chloride (1 mmol/liter); Zinc chloride (0.1 mmol/liter). The reaction pH was 10.2 at a reaction temperature of 37° C. and volume fraction (sample/total) of 0.033 (1:30).
(§4) The diluted enzymes and inhibitors at appropriate concentrations (as shown in the Figures) were hand pipetted into numbered cuvettes in the multicuvette assembly of the VP Bichromatic Analyzer. Once the assay was started, the analyzer dispensed an appropriate amount of the buffered solution of p-nitrophenylphosphate containing magnesium and zinc chlorides into each cuvette. The multicuvette assembly rotated and allowed measurement of absorbance changes at every two minutes intervals. A 415 nm-450 nm filter was used to assay AP activity. All enzyme activity measurements were done at least in duplicate and the average value was used in the data analyses.
(§5) The I50 value for APl-3 is similarly calculated from its dose response curve.

human placental AP = target: T2, human placental AP (Homo sapiens, UniProt P05187); assay: Inhibition of human placental AP isoenzyme (p-nitrophenylphosphate hydrolysis); assay type: biochemical; conditions: for order of effectiveness, placental isoenzymes / effectiveness against placental isoenzymes: FIG. 5; for inhibition of the placental isoenzymes: FIG. 7, at the concentration compared with E. coli AP; for times more potent than L-phenylalanine, placental isoenzymes: ratio to L-phenylalanine; for times more potent than levamisole, placental isoenzymes: ratio to levamisole
T2 construct: purchased Sigma Chemical Co., St. Louis, Mo
Protocol: as §1, §2, §3, §4, §5

human intestinal AP = target: T3, human intestinal AP (Homo sapiens, UniProt P09923); assay: Inhibition of human intestinal AP isoenzyme (p-nitrophenylphosphate hydrolysis); assay type: biochemical; conditions: for effectiveness against intestinal isoenzymes / order of effectiveness, intestinal isoenzymes: FIG. 6; for inhibition of the intestinal isoenzymes: FIG. 7, at the concentration compared with E. coli AP; for times as potent/effective as L-phenylalanine, intestinal isoenzymes: ratio to L-phenylalanine; for times as potent/effective as levamisole, intestinal isoenzymes: ratio to levamisole
T3 construct: purchased Aalto Scientific, Ltd., Vista, Calif
T3 sequence (P09923 20-503 limits assumed): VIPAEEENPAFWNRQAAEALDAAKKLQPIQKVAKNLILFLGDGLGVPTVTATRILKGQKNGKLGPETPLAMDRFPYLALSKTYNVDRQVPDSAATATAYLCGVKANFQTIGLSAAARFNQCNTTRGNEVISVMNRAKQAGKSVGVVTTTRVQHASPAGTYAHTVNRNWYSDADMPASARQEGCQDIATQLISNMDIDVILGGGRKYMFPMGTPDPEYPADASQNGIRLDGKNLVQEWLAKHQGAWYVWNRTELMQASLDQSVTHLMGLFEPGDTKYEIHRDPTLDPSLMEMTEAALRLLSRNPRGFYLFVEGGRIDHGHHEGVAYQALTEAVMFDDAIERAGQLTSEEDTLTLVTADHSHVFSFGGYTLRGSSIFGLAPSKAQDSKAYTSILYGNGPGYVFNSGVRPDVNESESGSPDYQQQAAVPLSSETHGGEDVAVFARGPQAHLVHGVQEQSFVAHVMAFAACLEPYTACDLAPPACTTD
Protocol: as §1, §2, §3, §4, §5

E. coli AP = assay: Inhibition of (altered) E. coli AP (p-nitrophenylphosphate hydrolysis); assay type: biochemical; conditions: FIG. 7, at the concentration inhibiting human isoenzymes, high concentrations
Protocol: E. coli AP (APKJ3 and APKJ4) were obtained according to the methods disclosed in U.S. patent Ser. No. 08/031,165 and its CIP. APKJ4 is an E. coli AP in which the lysine at its position 177 has been replaced with cysteine.
as §2
E. coli AP: P-Nitrophenylphosphate (1 mmol/liter); Tris-chloride (100 mmol/liter); Magnesium chloride (1 mmol/liter); and Zinc chloride (0.1 mmol/liter). The reaction pH was 8.0 at a reaction temperature of 37° C. and volume fraction (sample/total) of 0.033 (1:30).
as §4

calf intestinal AP [1] = target: T4, calf intestinal AP (Bos taurus, UniProt P19111); assay: Inhibition of calf intestinal AP; assay type: biochemical; conditions: for inhibition of calf intestinal AP versus E. coli AP: compared with E. coli AP; for inhibition of calf intestinal AP versus L-phenylalanine and levamisole: compared with L-phenylalanine and levamisole; for inhibition of calf intestinal AP versus human intestinal AP: compared with human intestinal AP
human AP = assay: Selectivity for human AP versus E. coli AP; assay type: biochemical; conditions: FIG. 7
Protocol: as §2, §3
E. coli AP: P-Nitrophenylphosphate (1 mmol/liter); Tris-chloride (100 mmol/liter); Magnesium chloride (1 mmol/liter); and Zinc chloride (0.1 mmol/liter). […]
The diluted enzymes and inhibitors at appropriate concentrations (as shown in the Figures) were hand pipetted into numbered cuvettes in the multicuvette assembly of the VP Bichromatic Analyzer. […] The multicuvette assembly rotated and allowed measurement of absorbance changes at every two minutes intervals. […]

AP = conditions: cited from earlier work
tissue-nonspecific AP = conditions: background art; cited from earlier work
[2] = system: placental and intestinal isoenzymes; conditions: background art; cited from earlier work
calf intestinal AP [3] = target: T4, calf intestinal AP; conditions: used in an immunoassay; cited from earlier work
[4] = pH 10.2, 37° C., p-nitrophenylphosphate 2.2 mmol/liter, from dose response curves
[5] = pH 10.2, 37° C., p-nitrophenylphosphate 2.2 mmol/liter, from dose response curves, read-out: [I]50 Placental AP: concentration of inhibitor that gives 50% inhibition of enzyme activity
[6] = pH 10.2, 37° C., p-nitrophenylphosphate 2.2 mmol/liter, from dose response curves, read-out: [I]50 Intestinal AP: concentration of inhibitor that gives 50% inhibition of enzyme activity

T4 sequence (P19111 20-506): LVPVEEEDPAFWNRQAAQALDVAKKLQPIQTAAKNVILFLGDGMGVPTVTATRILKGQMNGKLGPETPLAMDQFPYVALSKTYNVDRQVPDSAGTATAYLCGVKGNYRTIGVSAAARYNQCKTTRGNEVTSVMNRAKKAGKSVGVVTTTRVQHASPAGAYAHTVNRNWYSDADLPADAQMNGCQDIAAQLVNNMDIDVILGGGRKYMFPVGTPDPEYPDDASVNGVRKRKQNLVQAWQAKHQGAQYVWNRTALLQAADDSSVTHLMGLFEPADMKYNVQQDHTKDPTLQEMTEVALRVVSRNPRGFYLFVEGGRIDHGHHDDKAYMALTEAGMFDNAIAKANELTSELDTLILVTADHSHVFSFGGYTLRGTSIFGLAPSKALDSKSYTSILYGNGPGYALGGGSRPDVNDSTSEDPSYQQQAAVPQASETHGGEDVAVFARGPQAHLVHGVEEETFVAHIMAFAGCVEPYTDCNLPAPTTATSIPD
T2 sequence (P05187 23-506 limits assumed): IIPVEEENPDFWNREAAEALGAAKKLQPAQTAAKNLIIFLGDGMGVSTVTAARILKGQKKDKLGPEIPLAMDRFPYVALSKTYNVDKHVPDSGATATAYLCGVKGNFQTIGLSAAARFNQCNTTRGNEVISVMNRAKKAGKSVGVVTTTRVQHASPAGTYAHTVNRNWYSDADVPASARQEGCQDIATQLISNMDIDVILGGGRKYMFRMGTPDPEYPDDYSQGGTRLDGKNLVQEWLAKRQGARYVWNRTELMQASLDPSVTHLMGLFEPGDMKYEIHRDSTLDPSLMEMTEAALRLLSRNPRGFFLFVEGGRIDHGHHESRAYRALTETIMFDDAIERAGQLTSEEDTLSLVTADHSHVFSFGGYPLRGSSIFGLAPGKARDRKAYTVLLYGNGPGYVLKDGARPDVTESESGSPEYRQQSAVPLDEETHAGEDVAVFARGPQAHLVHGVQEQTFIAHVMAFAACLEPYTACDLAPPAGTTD

Row | Structure (SMILES) | order of potency as inhibitors of bone AP (human bone AP) | IC50 (human bone AP; [4]) | times more active than levamisole, bone isoenzymes (human bone AP) | order of effectiveness, placental isoenzymes (human placental AP) | inhibition of the placental isoenzymes (human placental AP) | IC50 (human placental AP; [5]) | times more potent than L-phenylalanine, placental isoenzymes (human placental AP) | times more potent than levamisole, placental isoenzymes (human placental AP) | effectiveness against intestinal isoenzymes (human intestinal AP) | order of effectiveness, intestinal isoenzymes (human intestinal AP) | inhibition of the intestinal isoenzymes (human intestinal AP) | IC50 (human intestinal AP; [6]) | times as potent/effective as L-phenylalanine, intestinal isoenzymes (human intestinal AP) | times as potent/effective as levamisole, intestinal isoenzymes (human intestinal AP) | inhibition of the E. coli AP (E. coli AP) | inhibition of calf intestinal AP versus E. coli AP (calf intestinal AP [1]) | inhibition of calf intestinal AP versus L-phenylalanine and levamisole (calf intestinal AP [1]) | selectivity for human AP compared to levamisole (human AP) | effectiveness against placental isoenzymes (human placental AP) | sensitivity of tissue-nonspecific AP to inhibitor (tissue-nonspecific AP) | other results
1 | c1ccc(Oc2ccc(C3CN4CCSC4=N3)cc2)cc1 (racemic) [API-1, (dl)-2,3,5,6-tetrahydro-6-(4-phenoxyphenyl)-imidazo[2,1-b]-thiazole] | APl-2>APl-1>levamisole | 4 µM | 15 times | APl-2>APl-1>levamisole>L-phenylalanine | 90% | 160 µM | 19 times | 14 times | much more effective inhibitors than levamisole and L-phenylalanine | APl-2>APl-1>L-phenylalanine>levamisole | 50-60% | 1000 µM | 5 times | 12 times | ≤ 10% | inhibited calf intestinal AP more than E. coli AP | more efficient than L-phenylalanine and levamisole at inhibiting calf intestinal AP | much more selective inhibitors of human AP compared to levamisole | – | – | inhibition of bone isoenzymes (human bone AP; listed as APl-1): nearly complete inhibition at much lower concentrations compared to levamisole; inhibition of calf intestinal AP versus human intestinal AP (calf intestinal AP [1]; listed as APl-1): more effective in inhibiting human intestinal AP than calf intestinal AP; also recorded: calf intestinal AP is more resistant to inhibition
2 | C1=CN2CC(c3ccc(Oc4ccccc4)cc3)N=C2S1 (racemic) [API-2, (dl)-5,6-dihydro-6-(4-phenoxyphenyl)-imidazo-[1,2-b]-thiazole] | APl-2>APl-1>levamisole | 0.6 µM | 100 times | APl-2>APl-1>levamisole>L-phenylalanine | 90% | 26 µM | 115 times | 85 times | much more effective inhibitors than levamisole and L-phenylalanine | APl-2>APl-1>L-phenylalanine>levamisole | 50-60% | 200 µM | 23 times | 60 times | ≤ 10% | inhibited calf intestinal AP more than E. coli AP | more efficient than L-phenylalanine and levamisole at inhibiting calf intestinal AP | much more selective inhibitors of human AP compared to levamisole | – | – | inhibition of bone isoenzymes (human bone AP; listed as APl-2): nearly complete inhibition at much lower concentrations compared to levamisole; times more potent than compound APl-1, placental isoenzymes (human placental AP; ratio to APl-1): about 6 times; times as effective as APl-1, intestinal isoenzymes (human intestinal AP; ratio to APl-1): 5 times; inhibition of calf intestinal AP versus human intestinal AP (calf intestinal AP [1]; listed as APl-2): more effective in inhibiting human intestinal AP than calf intestinal AP; also recorded: calf intestinal AP is more resistant to inhibition
3 | c1ccc(-c2ccc(C3CN4CCSC4=N3)cc2)cc1 (racemic) [API-3, (dl)-2,3,5,6-tetrahydro-6-(biphenyl)-imidazo-[1,2-b]-thiazole] | – | – | – | – | – | 500 µM | – | – | – | – | – | – | – | – | – | – | – | – | – | – | –
4 | c1ccc([C@@H]2CN3CCSC3=N2)cc1 [D- counterpart] | – | – | – | – | – | – | – | – | – | – | – | – | – | – | – | – | – | – | – | – | AP inhibition by D- counterpart of levamisole (AP): not an AP inhibitor
5 | N[C@@H](Cc1ccccc1)C(=O)O [L--Phe, L-phenylalanine, reference compound] | – | – | – | APl-2>APl-1>levamisole>L-phenylalanine | – | – | – | – | – | APl-2>APl-1>L-phenylalanine>levamisole | – | – | – | – | – | – | – | – | a lot less effective compared to compounds APl-1 and APl-2 | not sensitive; also recorded: does not inhibit tissue-nonspecific AP isoenzymes | inhibition of bone isoenzymes (human bone AP): does not inhibit bone isoenzymes; also recorded: activation of the bone isoenzymes; [I]50 Bone AP: concentration of inhibitor that gives 50% inhibition of enzyme activity (human bone AP; [4]): Activation; activation at 10000 µM (human bone AP; read-out: increase in activity of bone AP): ≤ 40%; IC50 (human placental AP): 3000 µM; IC50 (human intestinal AP): 4500 µM
6 | c1ccc([C@H]2CN3CCSC3=N2)cc1 [Levamisole, (L-)2,3,5,6-tetrahydro-6-phenylimidazo[1,2-b]thiazole, reference compound] | – | – | – | APl-2>APl-1>levamisole>L-phenylalanine | 80% | 2200 µM | – | – | – | APl-2>APl-1>L-phenylalanine>levamisole | 48% | 12000 µM | – | – | 65% | – | – | – | a lot less effective compared to compounds APl-1 and APl-2 | strongly inhibited | inhibition of placental and intestinal isoenzymes [2]: only at much higher concentrations; effect on specific immuno-signal generated by calf intestinal AP (calf intestinal AP [3]): does not interfere with the specific immuno-signal generated by calf intestinal AP
